Measurements published in PubChem BioAssay (NCI).
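Assay format: 96-well plates, 48-hour exposure. GI50 = concentration required for 50% inhibition of growth. TGI marks complete inhibition of growth.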

Experiments:
Assay in all cases: DTP human tumour cell line panel, 48 h
NCI-H522 lung = system: NCI-H522 lung
A549 NSCLC = system: A549 NSCLC
786-0 renal = system: 786-0 renal
SNB-19 CNS = system: SNB-19 CNS
RXF 393 renal = system: RXF 393 renal
SK-MEL-28 melanoma = system: SK-MEL-28 melanoma
SK-OV-3 ovarian = system: SK-OV-3 ovarian
DU-145 prostate = system: DU-145 prostate
OVCAR-5 ovarian = system: OVCAR-5 ovarian
RPMI-8226 leukemia = system: RPMI-8226 leukemia

Row | SMILES | GI50 (NCI-H522 lung) [µM] | TGI (NCI-H522 lung) [µM] | GI50 (A549 NSCLC) [µM] | TGI (A549 NSCLC) [µM] | GI50 (786-0 renal) [µM] | TGI (786-0 renal) [µM] | GI50 (SNB-19 CNS) [µM] | TGI (SNB-19 CNS) [µM] | GI50 (RXF 393 renal) [nM] | TGI (RXF 393 renal) [µM] | GI50 (SK-MEL-28 melanoma) [µM] | TGI (SK-MEL-28 melanoma) [µM] | GI50 (SK-OV-3 ovarian) [µM] | TGI (SK-OV-3 ovarian) [µM] | GI50 (DU-145 prostate) [nM] | TGI (DU-145 prostate) [µM] | GI50 (OVCAR-5 ovarian) [µM] | TGI (OVCAR-5 ovarian) [µM] | TGI (RPMI-8226 leukemia) [µM] | GI50 (RPMI-8226 leukemia) [µM]
1 | N#CC(NC(=O)CCl)=C(Cl)Cl | 0.437 | 1.83 | 3.51 | 13.8 | 2.13 | 5.87 | 1.67 | 3.17 | 1270 | 2.64 | 1.56 | 3.03 | 5.05 | 16 | 1690 | 4.02 | 1.96 | 3.47 | – | –
2 | OCC(O)C(O)C(O)C(O)c1nn[nH]n1 (configuration not stated) | – | > 100 | – | > 100 | – | > 100 | – | – | – | – | – | – | – | > 100 | – | – | – | > 100 | > 100 | –
3 | CC1CC(C)C(C(O)CC2CC(=O)N(c3ccccc3)C(=O)C2)C(O)C1 (configuration not stated) | – | > 100 | – | > 100 | – | > 100 | – | > 100 | – | > 100 | – | > 100 | – | > 100 | – | – | – | > 100 | > 100 | –
4 | COc1cc(/C=C2\C(=O)N(C)c3ccccc32)cc(OC)c1OC | 11.2 | 37.8 | 26.3 | > 100 | 25.3 | 97.4 | 24.7 | > 100 | 206 | 5.75 | 16 | 44.4 | 20.9 | > 100 | – | – | 25.2 | 70.2 | 49.1 | 9.67
5 | Nc1ncc(C2[C@H](CNC(=O)c3cc(Br)c[nH]3)C(CNC(=O)c3cc(Br)c[nH]3)[C@@H]2c2cnc(N)[nH]2)[nH]1 (some centres not stated) | > 50 | > 50 | > 50 | > 50 | > 50 | > 50 | – | – | – | – | – | – | – | – | 329 | > 50 | > 50 | > 50 | > 50 | > 50
6 | c1ccc2c3c([nH]c2c1)C1C2CCCCN2C(c2ccncc2)N1CC3 (configuration not stated) | – | > 100 | – | > 100 | – | > 100 | – | 65.3 | – | 83.4 | – | > 100 | – | > 100 | – | – | – | > 100 | 87.3 | –
7 | NNC(=O)N/N=C1\CN(c2ccc(Cl)cc2Cl)C(=O)C(=O)C1c1nc2ccccc2o1 (configuration not stated) | – | > 100 | – | > 100 | – | > 100 | – | > 100 | – | – | – | > 100 | – | > 100 | – | – | – | > 100 | > 100 | –
8 | [Cl-].[Gd+3].[O-]/N=C(\c1ccccc1)c1ccccn1.[O-]/N=C(\c1ccccc1)c1ccccn1.[O-]/N=C(\c1ccccc1)c1ccccn1 | 40.4 | > 100 | 55.2 | > 100 | 57.8 | > 100 | 93.2 | > 100 | – | – | 61.6 | > 100 | 48 | > 100 | – | – | 67.7 | > 100 | > 100 | > 100
9 | O=C(/C=C(\[O-])c1ccccc1)CCCCCCC(=O)/C=C(\[O-])c1ccccc1.O=C(/C=C(\[O-])c1ccccc1)CCCCCCC(=O)/C=C(\[O-])c1ccccc1.O=C(/C=C(\[O-])c1ccccc1)CCCCCCC(=O)/C=C(\[O-])c1ccccc1.[Nd+3].[Nd+3] | > 50 | > 50 | > 50 | > 50 | > 50 | > 50 | > 50 | > 50 | – | – | > 50 | > 50 | > 50 | > 50 | – | – | > 50 | > 50 | > 50 | 43.2
